Patent US10123993B2, “Cyclic ureas as inhibitors of rock” (BRISTOL-MYERS SQUIBB COMPANY, priority 2015, dated 2018)

Each molecule was assayed against ROCK2 (Homo sapiens, UniProt O75116) (assay: ROCK2 kinase inhibition assay (Caliper LABCHIP, FITC peptide substrate)). Settings: 5 μM ATP, 1.5 μM peptide substrate; value ranges.
Format: biochemical
Procedure, shortened: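 Rho kinase with 5 μM ATP and 1.5 μM FITC-AHA-AKRRRLSSLRA-OH peptide in HEPES pH 7.5, 20 mM MgCl2, 0.015% Brij-35, 4 mM DTT, DMSO <2%. EDTA stop; phospho and non-phospho peptide separated on LabChip. IC50 from dose-response fit.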

ROCK2, sequence (O75116 whole entry, species assumed): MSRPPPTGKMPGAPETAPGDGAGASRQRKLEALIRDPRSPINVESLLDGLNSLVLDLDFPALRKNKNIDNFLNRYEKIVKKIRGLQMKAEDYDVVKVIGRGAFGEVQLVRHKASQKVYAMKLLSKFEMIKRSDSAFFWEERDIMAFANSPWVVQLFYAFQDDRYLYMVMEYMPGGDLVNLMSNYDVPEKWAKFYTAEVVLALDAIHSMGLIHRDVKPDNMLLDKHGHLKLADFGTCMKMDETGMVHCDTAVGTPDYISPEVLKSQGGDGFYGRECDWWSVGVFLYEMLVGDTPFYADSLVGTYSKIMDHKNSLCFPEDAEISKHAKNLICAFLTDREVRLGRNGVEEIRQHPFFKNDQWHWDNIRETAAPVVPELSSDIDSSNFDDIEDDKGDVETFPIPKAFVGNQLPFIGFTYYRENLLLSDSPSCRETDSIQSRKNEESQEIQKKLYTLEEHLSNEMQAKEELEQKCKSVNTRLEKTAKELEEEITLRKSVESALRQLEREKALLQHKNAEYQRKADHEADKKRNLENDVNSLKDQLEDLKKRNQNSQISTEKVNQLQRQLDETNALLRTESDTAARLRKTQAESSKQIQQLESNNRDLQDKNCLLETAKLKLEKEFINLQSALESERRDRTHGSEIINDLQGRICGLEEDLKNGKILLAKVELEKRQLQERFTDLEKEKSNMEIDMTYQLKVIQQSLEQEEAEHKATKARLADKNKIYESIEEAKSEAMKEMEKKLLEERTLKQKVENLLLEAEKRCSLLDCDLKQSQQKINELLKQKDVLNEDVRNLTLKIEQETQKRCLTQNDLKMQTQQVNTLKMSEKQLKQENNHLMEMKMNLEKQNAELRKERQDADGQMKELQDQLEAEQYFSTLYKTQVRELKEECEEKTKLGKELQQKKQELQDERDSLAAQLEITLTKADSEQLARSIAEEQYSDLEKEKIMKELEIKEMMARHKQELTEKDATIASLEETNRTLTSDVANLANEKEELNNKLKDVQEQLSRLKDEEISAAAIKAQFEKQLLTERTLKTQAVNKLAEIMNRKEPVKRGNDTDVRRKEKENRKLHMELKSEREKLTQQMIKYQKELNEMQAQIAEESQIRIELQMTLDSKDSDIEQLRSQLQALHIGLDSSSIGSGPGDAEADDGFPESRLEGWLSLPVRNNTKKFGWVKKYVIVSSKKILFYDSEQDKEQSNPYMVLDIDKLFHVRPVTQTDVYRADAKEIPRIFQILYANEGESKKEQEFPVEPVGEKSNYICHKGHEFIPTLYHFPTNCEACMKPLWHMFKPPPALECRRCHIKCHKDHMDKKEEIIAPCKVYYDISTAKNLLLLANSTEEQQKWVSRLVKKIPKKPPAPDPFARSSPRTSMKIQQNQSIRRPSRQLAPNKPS

Cc1cc(F)ccc1Cn1ccn(-c2ccc(-c3cn[nH]c3)cc2)c1=O [Example 403, 1-(4-(1H-pyrazol-4-yl)phenyl)-3-(4-fluoro-2-methylbenzyl)-1H-imidazol-2(3H)-one] and Cc1ccc(F)cc1Cn1ccn(-c2ccc(-c3cn[nH]c3)cc2)c1=O [Example 404, 1-(4-(1H-pyrazol-4-yl)phenyl)-3-(5-fluoro-2-methylbenzyl)-1H-imidazol-2(3H)-one] fall in the same range of IC50: 20.1 to 200 nM for the first, 20.1 to 200 nM for the second.

COc1c(F)cccc1Cn1ccn(-c2ccc(-c3cn[nH]c3)cc2)c1=O [Example 405, 1-(4-(1H-pyrazol-4-yl)phenyl)-3-(3-fluoro-2-methoxybenzyl)-1H-imidazol-2(3H)-one] and O=c1n(Cc2cccc(F)c2F)ccn1-c1ccc(-c2cn[nH]c2)cc1 [Example 406, 1-(4-(1H-pyrazol-4-yl)phenyl)-3-(2,3-difluorobenzyl)-1H-imidazol-2(3H)-one] fall in the same range of IC50: 20.1 to 200 nM for the first, 20.1 to 200 nM for the second.

First: COc1cc(Cn2ccn(-c3ccc(-c4cn[nH]c4)cc3)c2=O)ccc1F [Example 407, 1-(4-(1H-pyrazol-4-yl)phenyl)-3-(4-fluoro-3-methoxybenzyl)-1H-imidazol-2(3H)-one]
Second: COc1cc(F)ccc1Cn1ccn(-c2ccc(-c3cn[nH]c3)cc2)c1=O [Example 412, 1-(4-(1H-pyrazol-4-yl)phenyl)-3-(4-fluoro-2-methoxybenzyl)-1H-imidazol-2(3H)-one]
The IC50 of the first is lower: 20.1 to 200 nM for the first, 200 to 2000 nM for the second.

O=c1n(Cc2cc(F)ccc2F)ccn1-c1ccc(-c2cn[nH]c2)cc1 [Example 408, 1-(4-(1H-pyrazol-4-yl)phenyl)-3-(2,5-difluorobenzyl)-1H-imidazol-2(3H)-one] and O=c1n(Cc2ccc(F)cc2F)ccn1-c1ccc(-c2cn[nH]c2)cc1 [Example 409, 1-(4-(1H-pyrazol-4-yl)phenyl)-3-(2,4-difluorobenzyl)-1H-imidazol-2(3H)-one] fall in the same range of IC50: 20.1 to 200 nM for the first, 20.1 to 200 nM for the second.

First: O=c1n(Cc2cccnc2)ccn1-c1ccc(-c2cn[nH]c2)cc1 [Example 410, 1-(4-(1H-pyrazol-4-yl)phenyl)-3-(pyridin-3-ylmethyl)-1H-imidazol-2(3H)-one]
Second: COc1nc(-n2ccn(Cc3cccnc3)c2=O)ccc1-c1cn[nH]c1 [Example 417, 1-(6-methoxy-5-(1H-pyrazol-4-yl)pyridin-2-yl)-3-(pyridin-3-ylmethyl)-1H-imidazol-2(3H)-one]
The IC50 of the first is higher: 20.1 to 200 nM for the first, 2.1 to 20 nM for the second. The second is the more potent here.

COc1nc(-n2ccn(Cc3cccc(F)c3)c2=O)ccc1-c1cn[nH]c1 [Example 413, 1-(3-fluorobenzyl)-3-(6-methoxy-5-(1H-pyrazol-4-yl)pyridin-2-yl)-1H-imidazol-2(3H)-one] and COc1nc(-n2ccn(Cc3cccc(OC(F)F)c3)c2=O)ccc1-c1cn[nH]c1 [Example 419, 1-(3-(difluoromethoxy)benzyl)-3-(6-methoxy-5-(1H-pyrazol-4-yl)pyridin-2-yl)-1H-imidazol-2(3H)-one] cannot be ordered by IC50: < 2 nM for the first, < 2 nM for the second.

First: COc1nc(-n2ccn(Cc3ccc(F)cc3F)c2=O)ccc1-c1cn[nH]c1 [Example 414, 1-(2,4-difluorobenzyl)-3-(6-methoxy-5-(1H-pyrazol-4-yl)pyridin-2-yl)-1H-imidazol-2(3H)-one]
Second: COc1nc(-n2ccn(Cc3cc(F)ccc3F)c2=O)ccc1-c1cn[nH]c1 [Example 415, 1-(2,5-difluorobenzyl)-3-(6-methoxy-5-(1H-pyrazol-4-yl)pyridin-2-yl)-1H-imidazol-2(3H)-one]
The IC50 of the first is higher: 20.1 to 200 nM for the first, 2.1 to 20 nM for the second. The second is the more potent here.

First: COc1nc(-n2ccn(Cc3cccc(F)c3OC)c2=O)ccc1-c1cn[nH]c1 [Example 416, 1-(3-fluoro-2-methoxybenzyl)-3-(6-methoxy-5-(1H-pyrazol-4-yl)pyridin-2-yl)-1H-imidazol-2(3H)-one]
Second: COc1nc(-n2ccn(CC3CCCO3)c2=O)ccc1-c1cn[nH]c1 (stereo not shown) [Example 418, 1-(6-methoxy-5-(1H-pyrazol-4-yl)pyridin-2-yl)-3-((tetrahydrofuran-2-yl)methyl)-1H-imidazol-2(3H)-one]
The IC50 of the first is lower: 2.1 to 20 nM for the first, 20.1 to 200 nM for the second.

Compared with COc1nc(-n2ccn(CC3CCCCC3)c2=O)ccc1-c1cn[nH]c1 [Example 420, 1-(cyclohexylmethyl)-3-(6-methoxy-5-(1H-pyrazol-4-yl)pyridin-2-yl)-1H-imidazol-2(3H)-one], COc1cccc(CN2CCN(c3cc(OC)c(-c4cn[nH]c4)cn3)C2=O)c1 [Example 423, 1-(4-Methoxy-5-(1H-pyrazol-4-yl)pyridin-2-yl)-3-(3-methoxybenzyl)imidazolidin-2-one] is lower in IC50: 20.1 to 200 nM for the first, 2.1 to 20 nM for the second. The second is the more potent here.

First: COc1ccc(F)cc1CN1CCN(c2ccc(-c3cn[nH]c3)c(F)c2)C1=O [Example 424, 1-(5-fluoro-2-methoxybenzyl)-3-(3-fluoro-4-(1H-pyrazol-4-yl)phenyl)imidazolidin-2-one]
Second: COc1cccc(CN2CCN(c3ccc(-c4cn[nH]c4)c(F)c3)C2=O)c1F [Example 433, 1-(2-fluoro-3-methoxybenzyl)-3-(3-fluoro-4-(1H-pyrazol-4-yl)phenyl)imidazolidin-2-one]
The IC50 of the first is lower: 2.1 to 20 nM for the first, 20.1 to 200 nM for the second.

Compared with COc1cc(F)cc(CN2CCN(c3ccc(-c4cn[nH]c4)c(F)c3)C2=O)c1 [Example 425, 1-(3-fluoro-4-(1H-pyrazol-4-yl)phenyl)-3-(3-fluoro-5-methoxybenzyl)imidazolidin-2-one], COc1cccc(CN2CCN(c3ccc(-c4cn[nH]c4)c(F)c3)C2=O)c1 [Example 430, 1-(3-fluoro-4-(1H-pyrazol-4-yl)phenyl)-3-(3-methoxybenzyl)imidazolidin-2-one] is higher in IC50: < 2 nM for the first, 2.1 to 20 nM for the second.

COc1ccc(F)c(CN2CCN(c3ccc(-c4cn[nH]c4)c(F)c3)C2=O)c1 [Example 426, 1-(3-fluoro-4-(1H-pyrazol-4-yl)phenyl)-3-(2-fluoro-5-methoxybenzyl)imidazolidin-2-one] and COc1cc(CN2CCN(c3ccc(-c4cn[nH]c4)c(F)c3)C2=O)ccc1F [Example 434, 1-(4-fluoro-3-methoxybenzyl)-3-(3-fluoro-4-(1H-pyrazol-4-yl)phenyl)imidazolidin-2-one] fall in the same range of IC50: 2.1 to 20 nM for the first, 2.1 to 20 nM for the second.

First: COc1cccc(CN2CCN(c3ccc(-c4cn[nH]c4)cn3)C2=O)c1F [Example 427, 1-(5-(1H-pyrazol-4-yl)pyridin-2-yl)-3-(2-fluoro-3-methoxybenzyl)imidazolidin-2-one]
Second: COc1cc(CN2CCN(c3ccc(-c4cn[nH]c4)cn3)C2=O)ccc1F [Example 429, 1-(5-(1H-pyrazol-4-yl)pyridin-2-yl)-3-(4-fluoro-3-methoxybenzyl)imidazolidin-2-one]
The IC50 of the first is higher: 20.1 to 200 nM for the first, 2.1 to 20 nM for the second.

Compared with COc1cc(F)cc(CN2CCN(c3ccc(-c4cn[nH]c4)cn3)C2=O)c1 [Example 428, 1-(5-(1H-pyrazol-4-yl)pyridin-2-yl)-3-(3-fluoro-5-methoxybenzyl)imidazolidin-2-one], COc1cc(F)cc(CN2CCN(c3ccc(-c4cn[nH]c4)nc3)C2=O)c1 [Example 437, 1-(6-(1H-pyrazol-4-yl)pyridin-3-yl)-3-(3-fluoro-5-methoxybenzyl)imidazolidin-2-one] is higher in IC50: 2.1 to 20 nM for the first, 20.1 to 200 nM for the second.

COc1cccc(F)c1CN1CCN(c2ccc(-c3cn[nH]c3)c(F)c2)C1=O [Example 431, 1-(3-fluoro-4-(1H-pyrazol-4-yl)phenyl)-3-(2-fluoro-6-methoxybenzyl)imidazolidin-2-one] and COc1ccc(CN2CCN(c3ccc(-c4cn[nH]c4)c(F)c3)C2=O)cc1F [Example 432, 1-(3-fluoro-4-(1H-pyrazol-4-yl)phenyl)-3-(3-fluoro-4-methoxybenzyl)imidazolidin-2-one] fall in the same range of IC50: 20.1 to 200 nM for the first, 20.1 to 200 nM for the second.

Compared with O=C1N(Cc2cccc(OCC3CC3)c2)CCN1c1ccc(-c2cn[nH]c2)cn1 [Example 438, 1-(5-(1H-pyrazol-4-yl)pyridin-2-yl)-3-(3-(cyclopropylmethoxy)benzyl)imidazolidin-2-one], O=C1N(Cc2cccc(OCC3CC3)c2)CCN1c1ccc(-c2cn[nH]c2)nc1 [Example 441, 1-(6-(1H-pyrazol-4-yl)pyridin-3-yl)-3-(3-(cyclopropylmethoxy)benzyl)imidazolidin-2-one] is higher in IC50: 20.1 to 200 nM for the first, 200 to 2000 nM for the second. The first is the more potent here.

COc1cccc(CN2CCN(c3ccc(-c4cn[nH]c4)nc3)C2=O)c1 [Example 439, 1-(6-(1H-pyrazol-4-yl)pyridin-3-yl)-3-(3-methoxybenzyl)imidazolidin-2-one] and COc1cccc(CN2CCN(c3ccc(-c4cn[nH]c4)cn3)C2=O)c1 [Example 446, 1-(5-(1H-pyrazol-4-yl)pyridin-2-yl)-3-(3-methoxybenzyl)imidazolidin-2-one] fall in the same range of IC50: 2.1 to 20 nM for the first, 2.1 to 20 nM for the second.

Compared with COc1cc(CN2CCN(c3ccc(-c4cn[nH]c4)nc3)C2=O)ccc1F [Example 440, 1-(6-(1H-pyrazol-4-yl)pyridin-3-yl)-3-(4-fluoro-3-methoxybenzyl)imidazolidin-2-one], CC(C)COc1cccc(CN2CCN(c3ccc(-c4cn[nH]c4)c(F)c3)C2=O)c1 [Example 443, 1-(3-fluoro-4-(1H-pyrazol-4-yl)phenyl)-3-(3-isobutoxybenzyl)imidazolidin-2-one] is lower in IC50: 20.1 to 200 nM for the first, 2.1 to 20 nM for the second.

First: COc1cccc(C(CO)N2CCN(c3ccc(-c4cn[nH]c4)cn3)C2=O)c1 (stereo not shown) [Example 442, 1-(5-(1H-pyrazol-4-yl)pyridin-2-yl)-3-(2-hydroxy-1-(3-methoxyphenyl)ethyl)imidazolidin-2-one]
Second: CC(C)COc1cccc(CN2CCN(c3ccc(-c4cn[nH]c4)cn3)C2=O)c1 [Example 444, 1-(5-(1H-pyrazol-4-yl)pyridin-2-yl)-3-(3-isobutoxybenzyl)imidazolidin-2-one]
The IC50 of the first is higher: 200 to 2000 nM for the first, 20.1 to 200 nM for the second.

COc1cccc(CN2CCN(c3cc(F)c(-c4cn[nH]c4)cc3F)C2=O)c1 [Example 447, 1-(2,5-difluoro-4-(1H-pyrazol-4-yl)phenyl)-3-(3-methoxybenzyl)imidazolidin-2-one] and COc1cc(F)cc(CN2CCN(c3cc(F)c(-c4cn[nH]c4)cc3F)C2=O)c1 [Example 448, 1-(2,5-difluoro-4-(1H-pyrazol-4-yl)phenyl)-3-(3-fluoro-5-methoxybenzyl)imidazolidin-2-one] fall in the same range of IC50: 20.1 to 200 nM for the first, 20.1 to 200 nM for the second.
